Results from patent US7090790B2, “Chemiluminescent composition producing white light” (priority 2004, dated 2006).

What was measured:
[1] = Solubility in chloroform at 20° C., Formula 2 vs Formula 3; assay type: physicochemical; conditions: in 100 mL of chloroform at 20° C.
[2] = Intensity of white light, Experimental Example 2 (−25° F.); conditions: low temperature
Procedure: The oxalate solutions and the activator solutions prepared in Examples 1 and 2, and Comparative Examples 1 and 2 were mixed in a volume ratio of 3:1 to chemiluminescent compositions, respectively.
The procedure was repeated in the same manner as in Experimental Example 1, except that the temperature of the thermostat was set to −25° F.

SMILES	Solubility, 1,6,7,12-tetrahaloperylenedicarboximide of Formula 3 (X is Cl) [1] [g]	precipitation of the dye in the chemiluminescent composition [2]
CCCCCCCCCCCCN1C(=O)c2cc(Cl)c3c4c(Cl)cc5c6c(cc(Cl)c(c7c(Cl)cc(c2c37)C1=O)c64)C(=O)N(CCCCCCCCCCCC)C5=O [Dodecyl (Formula 3), N,N′-didodecyl-1,6,7,12-tetrachloroperylene-3,4,9,10-dicarboximide]	65	no precipitates were formed even at low temperature
CCCCCCN1C(=O)c2cc(Cl)c3c4c(Cl)cc5c6c(cc(Cl)c(c7c(Cl)cc(c2c37)C1=O)c64)C(=O)N(CCCCCC)C5=O [Hexyl (Formula 3), N,N′-dihexyl-1,6,7,12-tetrachloroperylene-3,4,9,10-dicarboximide]	72	–
